According to patent publication USRE32268E, “Therapeutic composition and method of therapeutically treating warm blooded animals therewith” (Strategic Medical Research Corp., priority 1983, dated 1986):
Like-named read-outs stand apart in the source and are kept apart here.

Experiments:
[1] = tested on: influenza A2 virus, Hong Kong strain; test: antiviral potency against influenza A2 virus, Hong Kong strain, in tissue culture (baby hamster kidney cell line); assay type: cell-based; settings: for log reduction at 3 µg/mL / log reduction at 10 µg/mL: read-out: Log Decrease in Infectivity of Virus Inoculum
Experimental: Well established methodology of the prior art was employed to determine the antiviral potency of compounds against influenza A2 virus, Hong Kong strain, in tissue cultures, employing the baby hamster kidney cell line (see R. L. Muldoon, L. Mezny and G. G. Jackson in Antimicrobial Agents and Chemotherapy 2:224-228, 1972). Virus infectivity was evaluated by both hemagglutination techniques and cytopathogenic effects, with identical results for each method. In Table 1 below, the virus-inhibiting effects of two low drug concentrations, 3 and 10 μg/ml, are depicted. Results are given as the log decrease in infectivity of the virus inoculum. A log decrease of 4.0 is the maximum obtainable, representing complete suppression of virus growth in the system. The virus inoculum of day 0 was always 100 times that amount required to kill 50% of the tissue culture cells (100 TCD50).

herpes simplex virus = test: organism not typed; assay type: cell-based
[2] = tested on: influenza A2/Hong Kong disease; test: suppression of influenza A2/Hong Kong disease in mice; assay type: in vivo; settings: infected treated, 40 mg/Kg orally, at 8 days
influenza A/PR/8 = test: prevention of death in mice ill with a lethal influenza A/PR/8 infection; assay type: in vivo; settings: once 90 minutes before infection; for % of Population Protected / % Mortality: 8 days; for % Mortality: control 95; for Mortality Frequency at 8 Days: control 42/44
Experimental: The above medication was also examined for its capacity to prevent death in mice ill with a lethal influenza A/PR/8 infection. The drug was given subcutaneously at 3 dose levels, once 90 minutes before infection.

[3] = 3 μg/ml, inoculum 100 TCD50, 4.0 is the maximum obtainable
[4] = 10 μg/ml, inoculum 100 TCD50, 4.0 is the maximum obtainable
[5] = herpes simplex virus, tissue culture

CCN(CC)CCO[C@H]1[C@H](O)[C@@H](CO)OC(O)[C@@H]1O (stereo partly drawn) [3-O-2'-(N',N'-diethylaminoethyl)-D-glucose]
log reduction at 3 µg/mL [1, 3]: 0.5 | log reduction at 10 µg/mL [1, 4]: 1

CCN(CC)CCOC1C(C2COC(C)(C)O2)OC2OC(C)(C)OC21 [1,2:5,6-di-O-isopropylidene-3-O-2'-(N',N'-diethylaminoethyl)-D-glucofuranose]
Concentration required to exert 50% inhibition of herpes-induced plaque formation (herpes simplex virus; [5]): 6 µg/mL | Concentration required to exert 100% inhibition of herpes-induced plaque formation (herpes simplex virus; [5]): 30 µg/mL

3-O-2'-(N',N'-dimethylaminopropyl)-D-glucopyranose
Log Decrease in Infectivity of Virus Inoculum [1, 3]: 1.0 log | Log Decrease in Infectivity of Virus Inoculum [1, 4]: 2.0 log | Concentration required to exert 50% inhibition of herpes-induced plaque formation (herpes simplex virus): 3 µg/mL | Concentration required to exert 100% inhibition of herpes-induced plaque formation (herpes simplex virus): > 20 µg/mL

CN(C)CCCO[C@H]1[C@H](O)[C@@H](CO)OC(O)[C@@H]1O (stereo partly drawn) [3-O-3'-(N',N'-dimethylamino-n-propyl)-D-glucopyranose]
relative antiviral potency ([1]; influenza A2, among tested derivatives): the most potent effect | log reduction at 3 µg/mL [1]: 3.2 | log reduction at 10 µg/mL [1]: 4 | relative antiviral potency (herpes simplex virus): the most potent derivative | Frequency of Normal Lungs (<170 mg) ([2]; normal 12/21, infected control 1/21): 13/21 | Average Lung Weight ([2]; beginning 24 hours post-infection, 50% of drug 1,2-acetone-blocked, normal 160, infected control 258): 177 mg | % Disease Suppression ([2]; beginning 24 hours post-infection, lung weight): 82% | % of Population Protected (influenza A/PR/8; 10 mg/Kg subcutaneously): 14% | % Mortality (influenza A/PR/8; 10 mg/Kg subcutaneously): 81% | Mortality Frequency at 8 Days (influenza A/PR/8; 10 mg/Kg subcutaneously): 18/22 | % of Population Protected (influenza A/PR/8; 40 mg/Kg subcutaneously): 23% | % Mortality (influenza A/PR/8; 40 mg/Kg subcutaneously): 72% | Mortality Frequency at 8 Days (influenza A/PR/8; 40 mg/Kg subcutaneously): 16/22 | % of Population Protected (influenza A/PR/8; 160 mg/Kg subcutaneously): 50% | % Mortality (influenza A/PR/8; 160 mg/Kg subcutaneously): 45% | Mortality Frequency at 8 Days (influenza A/PR/8; 160 mg/Kg subcutaneously): 10/22

CN1CCC(O[C@H]2[C@H](O)[C@@H](CO)OC(O)[C@@H]2O)CC1 (stereo partly drawn) [3-O--4'-(N--methylpiperidyl)-D-glucose, 3-O-4'-(N-methylpiperidyl)-D-glucopyranose]
log reduction at 3 µg/mL [1]: 2.5 | log reduction at 10 µg/mL [1]: 3.5

CN(C)CCCOC[C@H]1OC(O)[C@H](O)[C@@H](O)[C@H]1O (stereo partly drawn) [6-O-3'-(N',N'-dimethylamino-n-propyl)-D-galactopyranose]
log reduction at 3 µg/mL [1, 3]: 1 | log reduction at 10 µg/mL [1, 4]: 2

CN(C)CCO[C@H]1[C@H](O)[C@@H](CO)OC(O)[C@@H]1O (stereo partly drawn) [3-O-2'-(N',N'-dimethylaminoethyl)-D-glucopyranose]
log reduction at 3 µg/mL [1, 3]: 2.5 | log reduction at 10 µg/mL [1, 4]: 3.5

CN1CCC(O[C@@H]2[C@H]3OC(C)(C)O[C@H]3O[C@@H]2[C@H]2COC(C)(C)O2)CC1 [1,2,5,6-di-O--isopropylidene-3-O--4'-(N--methyl-piperidyl)-D-glucofuranose]
IC50 (herpes simplex virus; read-out: Concentration required to exert 50% inhibition of herpes-induced plaque formation, herpes simplex virus, tissue culture): < 3 µg/mL

CC(CO[C@H]1[C@H](O)[C@@H](CO)OC(O)[C@@H]1O)CN(C)C (stereo partly drawn) [3-O-3'-(2',N',N'-trimethylamino-n-propyl)-D-glucopyranose]
log reduction at 3 µg/mL [1, 3]: 2.4 | log reduction at 10 µg/mL [1, 4]: 3

CC(CN(C)C)O[C@H]1O[C@H](CO)[C@@H](O)[C@H](O)[C@H]1O (stereo partly drawn) [α-N,N--dimethylaminoisopropylglucoside, α-N,N-dimethylaminoisopropyl-D-glucoside]
Log Decrease in Infectivity of Virus Inoculum [1, 3]: 1.5 log | Log Decrease in Infectivity of Virus Inoculum [1, 4]: 2.5 log | Concentration required to exert 50% inhibition of herpes-induced plaque formation (herpes simplex virus; [5]): 10 µg/mL | Concentration required to exert 100% inhibition of herpes-induced plaque formation (herpes simplex virus; [5]): > 50 µg/mL

CC(CN(C)C)OC[C@H]1OC(O)[C@H](O)[C@@H](O)[C@H]1O (stereo partly drawn) [6-O-2'-(N',N'-dimethylaminopropyl)-D-galactose]
Log Decrease in Infectivity of Virus Inoculum [1, 3]: 0.1 log | Log Decrease in Infectivity of Virus Inoculum [1, 4]: 0.5 log

NCCCO[C@H]1[C@H](O)[C@@H](CO)OC(O)[C@@H]1O (stereo partly drawn) [3-O--3'-n-propylamino-D-glucose, 3-O-3'-(n-propylamino)-D-glucopyranose]
IC100 (herpes simplex virus; read-out: Concentration required to exert 100% inhibition of herpes-induced plaque formation, herpes simplex virus, tissue culture): 20 µg/mL
